In patent US12091398B2, “PD-L1 antagonist compound” (ADLAI NORTYE BIOPHARMA CO., LTD., priority 2019, dated 2024):

Each compound was assayed on PD-1/PD-L1 interaction (assay: Cell based PD-1/PD-L1 NFAT reporter assay). Details: Homo sapiens, 6 h, PD-1/NFAT-Reporter-Jurkat cells co-cultured with TCR activator/PD-L1-CHO cells; 6 hour incubation; luciferase; calibrated to Atezolizumab 10 nM; read-out: Absolute EC50.
Design: species or system human
Description: Cell Based PD-1/PD-L1 NFAT Reporter Assay
Compounds of the present patent were tested in a cell based PD-1/PD-L1 NFAT reporter assay.
The cell-based luciferase reporter assay is used for monitoring the PD-1/PD-L1 inhibitor by characterizing the biological activity of PD-1: PD-L1 interactions in cellular context. PD-1/NFAT-Reporter-Jurkat cells stably over-expressing human PD-1 with NFAT reporter are used as effector cells. TCR activator/PD-L1—CHO cells over-expressing PD-L1 and an engineered T cell receptor (TCR) activator are used as target cells. When these two cells are co-cultivated, TCR complexes on effector cells are activated by TCR activator on target cells, resulting in expression of the NFAT luciferase reporter. However, PD1 and PD-L1 (or PD-L2) ligation prevents TCR activation and suppresses the NFAT-responsive luciferase activity. This inhibition can be specifically reversed by anti-PD1 or anti-PD-L1 inhibitors. PD1/PD-L1 inhibitors block PD1:PD-L1 interaction and promote TCR activation, resulting in reactivation of the NFAT responsive luciferase reporter.
PD-1/NFAT—Reporter—Jurkat cell (Cat: 60535) and TCR activator/PD-L1—CHO cell (Cat: 60536) were purchased from BPS Bioscience. Anti-human PD-L1 antibody (Atezolizumab, Cat: A2004) was purchased from Selleck; luciferase reporter gene expression detection kit (ONE-Glo™ Luciferase Assay System, Cat: E6120) was purchased from Promega; multifunction plate reader (SpectraMax i3x) was purchased from Molecular Devices.
PD-1/NFAT—Reporter—Jurkat cells and TCR activator/PD-L1—CHO cells were cultured in recommended media respectively.
Harvest TCR activator/PD-L1-CHO cells from culture and seed cells at a density of 35,000 cells per well into 96-well microplate in 100 µl of growth medium. Incubate cells at 37° C. in a CO2 incubator overnight. Next day, discard the culture media, add diluted compound in assay medium for 30 min. Anti-PD-L1 antibody (Atezolizumab, final concentration 10 nM) and 0.1% DMSO were the positive and negative control, respectively. Harvest the PD-1/NFAT-reporter-Jurkat cells by centrifugation and add to the wells. After 6 hour incubation, perform luciferase assay using the ONE-Glo™ Luciferase Assay System, following the manufacturer's assay protocol.
Anti-PD-L1 antibody (Atezolizumnab, 10 nM) was used as positive control to calibrate the inhibition rate using the following equation: % inhibition=(Sample luminescence/Average vehicle group luminescence−1)/(Average PD-L1 group luminescence/Average vehicle group luminescence−1)×100%.
`COc1cc(OCc2cccc(-c3cccc4c3cnn4Cc3cc(OCc4cncc(C#N)c4)c(CN4CCC(C)(C(=O)O)C4)cc3Cl)c2C)c(Cl)cc1CN1CCC(C)(C(=O)O)C1` (stereo not drawn) [Compound 70, 1-(4-((3-(1-(4-((3-carboxy-3-methylpyrrolidin-1-yl)methyl)-2-chloro-5-((5-cyanopyridin-3-yl)methoxy)benzyl)-1H-indazol-4-yl)-2-methylbenzyl)oxy)-5-chloro-2-methoxybenzyl)-3-methylpyrrolidine-3-carboxylic acid] showed an EC50 of 5850 nM.
With `Cc1c(COc2cc(OCc3cncc(C#N)c3)c(CNCCO)cc2Cl)cccc1-c1cccc2c1cnn2Cc1cc(OCc2cncc(C#N)c2)c(CNCCO)cc1Cl` [Compound 71] the EC50 was 134 nM.
In the case of `COc1cc(OCc2cccc(-c3cccc4c3cnn4Cc3cc(OCc4cncc(C#N)c4)c(CN)cc3Cl)c2C)c(Cl)cc1CN` [Compound 72], the EC50 is reported as > 1110 nM.
Compound `COc1cc(OCc2cccc(-c3cccc4c3cnn4Cc3cc(OCc4cncc(C#N)c4)c(CN)cc3Cl)c2C)c(Cl)cc1CN[C@@H](CO)C(=O)O` [Compound 73] has an EC50 of 448 nM.
Compound `COc1cc(OCc2cccc(-c3cccc4c3cnn4Cc3cc(OCc4cncc(C#N)c4)c(CN[C@@H](CO)C(=O)O)cc3Cl)c2C)c(Cl)cc1CN` [Compound 74] has an EC50 of 2700 nM.
`Cc1c(COc2cc(OCc3cncc(C#N)c3)c(CN)cc2Cl)cccc1-c1cccc2c1cnn2Cc1cc(OCc2cncc(C#N)c2)c(CN)cc1Cl` [Compound 75] was tested, and the EC50 was 2830 nM.
With `COc1nc(-c2cccc(-c3cccc4c3cnn4Cc3cc(OCc4cncc(C#N)c4)c(CN[C@@H](CO)C(=O)O)cc3Cl)c2Cl)ccc1CNC[C@@H]1CCC(=O)N1` [Compound 76] the EC50 was 34 nM.
For `N#Cc1cncc(COc2cc(Cn3ncc4c(-c5cccc(-c6ccc(CNC[C@@H]7CCC(=O)N7)cc6)c5Cl)cccc43)c(Cl)cc2CN[C@@H](CO)C(=O)O)c1` [Compound 77], the EC50 was 28 nM.
Work on `COc1cc(OCc2cccc(-c3cccc4c3c(C)nn4Cc3cc(OCc4cncc(C#N)c4)c(CN[C@@H](CO)C(=O)O)cc3Cl)c2C)c(Cl)cc1CN[C@@H](CO)C(=O)O` [Compound 78] yielded an EC50 of 1600 nM.
In the case of `N#Cc1cncc(COc2cc(OCc3cccc(-c4cccc5c4cnn5CCCCN4CC[C@@H](O)C4)c3Br)c(Cl)cc2CN2CC[C@H](O)C2)c1` [Compound 79], the EC50 is reported as > 370 nM.
With `N#Cc1cncc(COc2cc(OCc3cccc(-c4cccc5c4cnn5CCCCN4CC[C@@H](O)C4)c3Br)c(Cl)cc2CNCCO)c1` [Compound 80] the EC50 was 318 nM.
Compound `C[C@H](CO)NCc1cc(Cl)c(OCc2cccc(-c3cccc4c3cnn4CCCCN3CC[C@@H](O)C3)c2Br)cc1OCc1cncc(C#N)c1` [Compound 81] has an EC50 of 221 nM.
Work on `N#Cc1cncc(COc2cc(OCc3cccc(-c4cccc5c4cnn5CCCCN4CC[C@@H](O)C4)c3Br)c(Cl)cc2CN2CC[C@@H](O)C2)c1` [Compound 82] yielded an EC50 of 339 nM.
Compound `N#Cc1cncc(COc2cc(OCc3cccc(-c4cccc5c4cnn5CCCCN4CC[C@@H](O)C4)c3Br)c(Cl)cc2CNC[C@@H]2CCC(=O)N2)c1` [Compound 83] has an EC50 of 232 nM.
In the case of `CC1(C(=O)O)CCN(Cc2cc(Cl)c(OCc3cccc(-c4cccc5c4cnn5CCCCN4CC[C@@H](O)C4)c3Br)cc2OCc2cncc(C#N)c2)C1` (stereo partly drawn) [Compound 84], the EC50 is reported as 1750 nM.
In the case of `N#Cc1cncc(COc2cc(OCc3cccc(-c4cccc5c4cnn5CCCCN4CC[C@@H](O)C4)c3Br)c(Cl)cc2CN2CCCC2)c1` [Compound 85], the EC50 is reported as > 370 nM.
With `N#Cc1cncc(COc2cc(OCc3cccc(-c4cccc5c4cnn5CCCCNC[C@@H]4CCC(=O)N4)c3Br)c(Cl)cc2CN[C@@H](CO)C(=O)O)c1` [Compound 86] the EC50 was 214 nM.
In the case of `N#Cc1cncc(COc2cc(OCc3cccc(-c4cccc5c4cnn5CCCNC[C@@H]4CCC(=O)N4)c3Br)c(Cl)cc2CN[C@@H](CO)C(=O)O)c1` [Compound 87, (4-((2-bromo-3-(1-(3-((((S)-5-oxopyrrolidin-2-yl)methyl)amino)propyl)-1H-indazol-4-yl)benzyl)oxy)-5-chloro-2-((5-cyanopyridin-3-yl)methoxy)benzyl)-L-serine], the EC50 is reported as 98 nM.
`Cc1c(OCCCN2CC[C@@H](O)C2)cccc1-c1ccnc2c1cnn2Cc1cc(OCc2cncc(C#N)c2)c(CN[C@@H](CO)C(=O)O)cc1Cl` [Compound 88, (5-chloro-2-((5-cyanopyridin-3-yl)methoxy)-4-((4-(3-(3-((R)-3-hydroxypyrrolidin-1-yl)propoxy)-2-methylphenyl)-1H-pyrazolo[3,4-b]pyridin-1-yl)methyl)benzyl)-L-serine] showed an EC50 of 1030 nM.
`Cc1c(OCCCN2CC[C@@H](O)C2)cccc1-c1cncc2c1cnn2Cc1cc(OCc2cncc(C#N)c2)c(CN[C@@H](CO)C(=O)O)cc1Cl` [Compound 89, (5-chloro-2-((5-cyanopyridin-3-yl)methoxy)-4-((4-(3-(3-((R)-3-hydroxypyrrolidin-1-yl)propoxy)-2-methylphenyl)-1H-pyrazolo[3,4-c]pyridin-1-yl)methyl)benzyl)-L-serine] gave an EC50 of 5450 nM.
For `COc1cc(Cn2ccc3c(-c4cccc(-c5ccc(CNC[C@@H]6CCC(=O)N6)cc5)c4Cl)cccc32)c(Cl)cc1CN[C@@H](CO)C(=O)O` [Compound 91, (5-chloro-4-((4-(2-chloro-4′-(((((S)-5-oxopyrrolidin-2-yl)methyl)amino)methyl)-[1,1′-biphenyl]-3-yl)-1H-indol-1-yl)methyl)-2-methoxybenzyl)-L-serine], the EC50 was 518 nM.
In the case of `COc1cc(Cn2nnc3c(-c4cccc(-c5ccc(CNC[C@@H]6CCC(=O)N6)cc5)c4Cl)cccc32)c(Cl)cc1CN[C@@H](CO)C(=O)O` [Compound 92, (5-chloro-4-((4-(2-chloro-4′-(((((S)-5-oxopyrrolidin-2-yl)methyl)amino)methyl)-[1,1′-biphenyl]-3-yl)-1H-benzo[d][1,2,3]triazol-1-yl)methyl)-2-methoxybenzyl)-L-serine], the EC50 is reported as 416 nM.
With `COc1cc(Cn2cnc3c(-c4cccc(-c5ccc(CNC[C@@H]6CCC(=O)N6)cc5)c4Cl)cccc32)c(Cl)cc1CN[C@@H](CO)C(=O)O` [Compound 93, (5-chloro-4-((4-(2-chloro-4′-(((((S)-5-oxopyrrolidin-2-yl)methyl)amino)methyl)-[1,1′-biphenyl]-3-yl)-1H-benzo[d]imidazol-1-yl)methyl)-2-methoxybenzyl)-L-serine] the EC50 was 2130 nM.
For `CN1CCC2(CC1)CCN(Cc1cccc(-c3cccc4c3cnn4Cc3cc(OCc4cncc(C#N)c4)c(CN[C@@H](CO)C(=O)O)cc3Cl)c1Cl)CC2` [Compound 94, (5-chloro-4-((4-(2-chloro-3-((9-methyl-3,9-diazaspiro[5.5]undecan-3-yl)methyl)phenyl)-1H-indazol-1-yl)methyl)-2-((5-cyanopyridin-3-yl)methoxy)benzyl)-L-serine], the EC50 was > 10000 nM.
With `CN1CCC2(CC1)CCN(C(=O)c1cccc(-c3cccc4c3cnn4Cc3cc(OCc4cncc(C#N)c4)c(CN[C@@H](CO)C(=O)O)cc3Cl)c1Cl)CC2` [Compound 95, (5-chloro-4-((4-(2-chloro-3-(9-methyl-3,9-diazaspiro[5.5]undecane-3-carbonyl)phenyl)-1H-indazol-1-yl)methyl)-2-((5-cyanopyridin-3-yl)methoxy)benzyl)-L-serine] the EC50 was > 10000 nM.

Same assay, conditions: Homo sapiens; PD-1/NFAT-Reporter-Jurkat cells co-cultured with TCR activator/PD-L1-CHO cells; 6 hour incubation; luciferase; calibrated to Atezolizumab 10 nM; read-out: Absolute EC50
Compound `N#Cc1cncc(COc2cc(Cn3ncc4c(-c5cccc(OCc6ccc(CN7CC[C@@H](O)C7)cc6)c5Cl)cccc43)c(Cl)cc2CN[C@@H](CO)C(=O)O)c1` [Compound 90, (5-chloro-4-((4-(2-chloro-3-((4-(((R)-3-hydroxypyrrolidin-1-yl)methyl)benzyl)oxy)phenyl)-1H-indazol-1-yl)methyl)-2-((5-cyanopyridin-3-yl)methoxy)benzyl)-L-serine] has an EC50 of 1060 nM.
With `CN1CCC2(CC1)CCN(c1cccc(-c3cccc4c3cnn4Cc3cc(OCc4cncc(C#N)c4)c(CN[C@@H](CO)C(=O)O)cc3Cl)c1Cl)CC2` [Compound 96, (5-chloro-4-((4-(2-chloro-3-(9-methyl-3,9-diazaspiro[5.5]undecan-3-yl)phenyl)-1H-indazol-1-yl)methyl)-2-((5-cyanopyridin-3-yl)methoxy)benzyl)-L-serine] the EC50 was 2450 nM.
